Source: PubChem BioAssay (NCI)
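Compound exposure: 48 hours, 5 concentrations, 96-well plates. TGI is the concentration that stops growth completely.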

What was measured:
Experiment in all cases: NCI-60 cell line screen, 48 h
[1] = tested on: 786-0 renal
[2] = tested on: A498 renal
[3] = tested on: A549 NSCLC
[4] = tested on: ACHN renal
[5] = tested on: BT-549 breast
[6] = tested on: CAKI-1 renal
[7] = tested on: CCRF-CEM leukemia
[8] = tested on: COLO 205 colon
[9] = tested on: DU-145 prostate
[10] = tested on: EKVX NSCLC
[11] = tested on: HCC-2998 colon
[12] = tested on: HCT-116 colon
[13] = tested on: HCT-15 colon
[14] = tested on: HL-60(TB) leukemia
[15] = tested on: HOP-62 NSCLC
[16] = tested on: HOP-92 NSCLC
[17] = tested on: HS 578T breast
[18] = tested on: HT29 colon
[19] = tested on: IGROV1 ovarian
[20] = tested on: KM12 colon
[21] = tested on: LOX IMVI melanoma
[22] = tested on: M14 melanoma
[23] = tested on: MCF7 breast
[24] = tested on: MDA-MB-231 breast
[25] = tested on: MDA-MB-435
[26] = tested on: MDA-N
[27] = tested on: MOLT-4 leukemia
[28] = tested on: NCI-H226 lung
[29] = tested on: NCI-H23 lung
[30] = tested on: NCI-H460 lung
[31] = tested on: NCI-H522 lung
[32] = tested on: NCI/ADR-RES ovarian
[33] = tested on: OVCAR-3 ovarian
[34] = tested on: OVCAR-4 ovarian
[35] = tested on: OVCAR-5 ovarian
[36] = tested on: OVCAR-8 ovarian
[37] = tested on: PC-3 prostate
[38] = tested on: RXF 393 renal
[39] = tested on: SF-268 CNS
[40] = tested on: SF-295 CNS
[41] = tested on: SF-539 CNS
[42] = tested on: SK-MEL-2 melanoma
[43] = tested on: SK-MEL-28 melanoma
[44] = tested on: SK-MEL-5 melanoma
[45] = tested on: SK-OV-3 ovarian
[46] = tested on: SN12C renal
[47] = tested on: SNB-19 CNS
[48] = tested on: SNB-75 CNS
[49] = tested on: SR leukemia
[50] = tested on: SW-620 colon
[51] = tested on: T-47D breast
[52] = tested on: TK-10 renal
[53] = tested on: U251 CNS
[54] = tested on: UACC-257 melanoma
[55] = tested on: UACC-62 melanoma
[56] = tested on: UO-31 renal

Measured: TGI

Cc1ccc2c(c1)[nH]c(=S)n2C=C1C(=O)CC(C)(C)CC1=O
> 100 µM: all assays above
